Source: patent publication EP1534716B1, “HETEROBICYCLIC PYRAZOLE DERIVATIVES AS KINASE INHIBITORS” (priority 2002, dated 2004)
Counter-ions that a name gives are not always drawn.

What was measured:
Assay type in all cases: biochemical
[1] = biological target: PAK4 (Homo sapiens, UniProt O96013); test: PAK4 inhibition
[2] = biological target: Cdc7/dbf4 (Homo sapiens, UniProt O00311); test: Inhibition assay of Cdc7/dbf4 activity (SPA); details: 2 µM ATP, 60 minutes at 37°C
Procedure: Inhibition assay of Cdc7/dbf4 activity
The inhibition assay of Cdc7/dbf4 activity is performed according to the following protocol.
The Biotin-MCM2 substrate is trans-phosphorylated by the Cdc7/Dbf4 complex in the presence of ATP traced with γ^33-ATP. The phosphorylated Biotin-MCM2 substrate is then captured by Streptavidin-coated SPA beads and the extent of phosphorylation evaluated by β counting.
The inhibition assay of Cdc7/dbf4 activity was performed in 96 wells plate according to the following protocol.
To each well of the plate were added: • 10 µl substrate (biotinylated MCM2, 6 µM final concentration) • 10 µl enzyme (Cdc7/Dbf4, 17.9 nM final concentration) • 10 µl test compound (12 increasing concentrations in the nM to µM range to generate a dose-response curve) • 10 µl of a mixture of cold ATP (2 µM final concentration) and radioactive ATP (1/5000 molar ratio with cold ATP) was then used to start the reaction which was allowed to take place at 37°C.
Substrate, enzyme and ATP were diluted in 50 mM HEPES pH 7.9 containing 15 mM MgCl2, 2 mM DTT, 3 µM NaVO3, 2mM glycerophosphate and 0.2mg/ml BSA. The solvent for test compounds also contained 10% DMSO.
After incubation for 60 minutes, the reaction was stopped by adding to each well 100 µl of PBS pH 7.4 containing 50 mM EDTA, 1 mM cold ATP, 0.1% Triton X100 and 10 mg/ml streptavidin coated SPA beads.
After 20 min incubation, 110 µL of suspension were withdrawn and transferred into 96-well OPTIPLATEs containing 100 µl of 5M CsCl. After 4 hours, the plates were read for 2 min in a Packard TOP-Count radioactivity reader.
IC50 determination: see above.

[3] = biological target: T1, Aurora-2 (Homo sapiens, UniProt O14965); test: Inhibition assay of Aurora-2 activity (SPA); details: 10 µM ATP, 60 minutes at room temperature
T1 sequence (O14965 1-403): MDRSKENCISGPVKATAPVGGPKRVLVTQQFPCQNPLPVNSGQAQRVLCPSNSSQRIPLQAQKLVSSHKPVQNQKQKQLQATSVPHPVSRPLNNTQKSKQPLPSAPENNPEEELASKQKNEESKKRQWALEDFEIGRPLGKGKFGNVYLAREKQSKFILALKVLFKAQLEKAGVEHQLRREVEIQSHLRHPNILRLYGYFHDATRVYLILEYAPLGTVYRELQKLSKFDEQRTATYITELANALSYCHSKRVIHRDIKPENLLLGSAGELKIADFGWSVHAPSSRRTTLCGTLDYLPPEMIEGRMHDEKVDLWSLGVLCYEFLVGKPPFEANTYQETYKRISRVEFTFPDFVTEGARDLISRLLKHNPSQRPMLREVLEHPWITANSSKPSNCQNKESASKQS
Procedure: (§1) The inhibiting activity of putative cdk/cyclin inhibitors and the potency of selected compounds is determined through a method of assay based on the use of the SPA technology (Amersham Pharmacia Biotech).
(§2) The assay consists of the transfer of radioactivity labelled phosphate moiety by the kinase to a biotinylated substrate. The resulting 33P-labelled biotinylated product is allowed to bind to streptavidin-coated SPA beads (biotin capacity 130 pmol/mg), and light emitted was measured in a scintillation counter.
(§3) Experimental data were analyzed by the computer program GraphPad Prizm using the four parameter logistic equation: [formula] where x is the logarithm of the inhibitor concentration, y is the response; y starts at bottom and goes to top with a sigmoid shape.
Inhibition assay of Aurora-2 activity
After 60 minutes at room temperature incubation, reaction was stopped and biotinylated peptide captured by adding 100 µl of bead suspension.
Stratification: 100 µl of CsC12 5 M were added to each well and let stand 4 hour before radioactivity was counted in the Top-Count instrument.
IC50 determination: see above

[4] = biological target: cdk2/Cyclin A (Homo sapiens, UniProt P24941); test: Inhibition assay of cdk2/Cyclin A activity (SPA); details: 10 µM ATP, 60 min at room temperature
Procedure: as §1, §2
Inhibition assay of cdk2/Cyclin A activity
Kinase reaction: 4 µM in house biotinylated histone H1 (Sigma # H-5505) substrate, 10 µM ATP (0.1 microCi P^33γ-ATP), 1.1 nM Cyclin A/CDK2 complex, inhibitor in a final volume of 30 µl buffer (TRIS HCl 10 mM pH 7.5, MgCl2 10 mM, DTT 7.5 mM + 0.2 mg/ml BSA) were added to each well of a 96 U bottom. After incubation for 60 min at room temperature, the reaction was stopped by addition of 100 µl PBS buffer containing 32 mM EDTA, 500 µM cold ATP, 0.1% Triton X100 and 10mg/ml streptavidin coated SPA beads. After 20 min incubation, 110 µL of suspension were withdrawn and transferred into 96-well OPTIPLATEs containing 100 µl of 5M CsCl. After 4 hours, the plates were read for 2 min in a Packard TOP-Count radioactivity reader.
as §3

Sequence of PAK4 (O96013 whole entry, species assumed): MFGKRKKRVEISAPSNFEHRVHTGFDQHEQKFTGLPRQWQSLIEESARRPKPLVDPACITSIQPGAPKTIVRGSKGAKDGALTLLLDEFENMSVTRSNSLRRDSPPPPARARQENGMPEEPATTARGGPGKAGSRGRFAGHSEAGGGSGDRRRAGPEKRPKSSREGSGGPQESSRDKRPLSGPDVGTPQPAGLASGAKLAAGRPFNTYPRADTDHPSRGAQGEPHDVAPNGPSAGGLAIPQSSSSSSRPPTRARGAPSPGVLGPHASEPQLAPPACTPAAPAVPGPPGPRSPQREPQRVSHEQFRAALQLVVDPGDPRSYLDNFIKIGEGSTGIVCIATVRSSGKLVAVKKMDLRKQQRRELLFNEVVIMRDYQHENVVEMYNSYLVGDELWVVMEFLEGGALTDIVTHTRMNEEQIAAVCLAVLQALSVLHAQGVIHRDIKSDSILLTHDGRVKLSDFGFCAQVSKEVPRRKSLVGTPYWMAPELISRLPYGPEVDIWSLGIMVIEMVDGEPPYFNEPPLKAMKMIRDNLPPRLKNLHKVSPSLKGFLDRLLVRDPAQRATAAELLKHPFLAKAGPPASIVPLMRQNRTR
Sequence of Cdc7/dbf4 (O00311 whole entry, species assumed): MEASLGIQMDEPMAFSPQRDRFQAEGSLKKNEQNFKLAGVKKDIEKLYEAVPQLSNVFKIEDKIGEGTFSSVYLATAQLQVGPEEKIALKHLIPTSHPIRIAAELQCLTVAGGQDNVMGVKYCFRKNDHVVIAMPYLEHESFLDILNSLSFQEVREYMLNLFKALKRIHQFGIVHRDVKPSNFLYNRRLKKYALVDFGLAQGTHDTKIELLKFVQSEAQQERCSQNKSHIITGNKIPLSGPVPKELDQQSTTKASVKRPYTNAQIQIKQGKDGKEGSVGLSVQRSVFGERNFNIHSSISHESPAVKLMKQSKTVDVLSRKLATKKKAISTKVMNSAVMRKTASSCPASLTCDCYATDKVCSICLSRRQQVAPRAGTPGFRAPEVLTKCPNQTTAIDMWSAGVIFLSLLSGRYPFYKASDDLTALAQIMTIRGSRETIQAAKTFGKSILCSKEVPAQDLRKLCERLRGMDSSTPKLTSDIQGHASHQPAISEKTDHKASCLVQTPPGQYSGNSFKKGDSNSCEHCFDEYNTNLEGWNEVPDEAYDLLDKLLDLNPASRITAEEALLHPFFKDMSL
Sequence of Cdc7/dbf4 (Q9UBU7 whole entry partner, species assumed): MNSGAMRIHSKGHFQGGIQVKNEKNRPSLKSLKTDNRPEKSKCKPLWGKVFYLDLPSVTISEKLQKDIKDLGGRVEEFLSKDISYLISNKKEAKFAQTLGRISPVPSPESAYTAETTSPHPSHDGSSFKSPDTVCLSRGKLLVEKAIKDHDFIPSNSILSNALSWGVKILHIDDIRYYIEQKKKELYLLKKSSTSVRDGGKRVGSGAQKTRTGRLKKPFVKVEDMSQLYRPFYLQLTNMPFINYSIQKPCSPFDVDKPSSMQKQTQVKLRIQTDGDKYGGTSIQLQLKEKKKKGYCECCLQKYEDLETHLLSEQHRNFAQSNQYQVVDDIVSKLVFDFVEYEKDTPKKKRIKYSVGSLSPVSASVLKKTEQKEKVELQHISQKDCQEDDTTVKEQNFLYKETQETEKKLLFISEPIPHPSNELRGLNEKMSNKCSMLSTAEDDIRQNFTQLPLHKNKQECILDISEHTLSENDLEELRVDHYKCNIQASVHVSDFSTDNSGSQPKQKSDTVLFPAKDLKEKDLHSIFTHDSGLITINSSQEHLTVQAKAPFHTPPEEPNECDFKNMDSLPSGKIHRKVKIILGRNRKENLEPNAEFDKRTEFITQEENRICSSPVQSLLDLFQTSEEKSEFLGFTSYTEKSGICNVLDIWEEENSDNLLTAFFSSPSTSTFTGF

| SMILES | IC50 [1] | IC50 [2] | IC50 [3] | IC50 [4] |
| --- | --- | --- | --- | --- |
| CN1CCN(c2ccc(C(=O)Nc3n[nH]c4cc(C(=O)NCc5ccco5)sc34)cc2)CC1 [Compound 114, N-(2-furylmethyl)-3-{[4-(4-methylpiperazin-1-yl)benzoyl]amino}-1H-thieno[3,2-c]pyrazole-5-carboxamide] | < 500 nM | < 1000 nM | < 100 nM | < 500 nM |
| COC(=O)c1cc2[nH]nc(NC(=O)c3ccc(N4CCOCC4)cc3)c2s1 [Compound 52, methyl 3-[(4-morpholin-4-ylbenzoyl)amino]-1H-thieno[3,2-c]pyrazole-5-carboxylate] | < 500 nM | < 1000 nM | < 100 nM | – |
| CN1CCN(c2ccc(C(=O)Nc3n[nH]c4cc(C(=O)NCc5cccs5)sc34)cc2)CC1 [Compound 115, 3-{[4-(4-methylpiperazin-1-yl)benzoyl]amino}-N-(thien-2-ylmethyl)-1H-thieno[3,2-c]pyrazole-5-carboxamide] | < 500 nM | < 1000 nM | < 100 nM | – |
| CN1CCN(c2ccc(C(=O)Nc3n[nH]c4cc(C(=O)O)oc34)cc2)CC1 [Compound 162, 3-{[4-(4-methylpiperazin-1-yl)benzoyl]amino}-1H-furo[3,2-c]pyrazole-5-carboxylic acid] | – | < 1000 nM | < 100 nM | – |
| O=C(Nc1n[nH]c2cc(C(=O)O)sc12)c1ccc(N2CCOCC2)cc1 [Compound 57, 3-[(4-morpholin-4-ylbenzoyl)amino]-1H-thieno[3,2-c]pyrazole-5-carboxylic acid] | – | < 1000 nM | < 100 nM | < 500 nM |
| CN1CCN(c2ccc(C(=O)Nc3n[nH]c4cc(C(=O)NCc5ccccc5F)sc34)cc2)CC1 [Compound 101, N-(2-fluorobenzyl)-3-{[4-(4-methylpiperazin-1-yl)benzoyl]amino}-1H-thieno[3,2-c]pyrazole-5-carboxamide] | < 500 nM | < 1000 nM | < 100 nM | – |
| O=C(Nc1n[nH]c2cc(C(=O)O)oc12)c1ccc(F)cc1 [Compound 163, 3-[(4-fluorobenzoyl)amino]-1H-furo[3,2-c]pyrazole-5-carboxylic acid] | < 500 nM | – | < 100 nM | – |
| O=C(Nc1n[nH]c2cc(C(=O)NCc3ccc(F)cc3)sc12)c1ccc(N2CCOCC2)cc1 [Compound 133, N-(4-fluorobenzyl)-3-[(4-morpholin-4-ylbenzoyl)amino]-1H-thieno[3,2-c]pyrazole-5-carboxamide] | < 500 nM | – | < 100 nM | – |
| CCNC(=O)c1cc2[nH]nc(NC(=O)c3ccc(N4CCN(C)CC4)cc3)c2s1 [Compound 93, N-ethyl-3-{[4-(4-methylpiperazin-1-yl)benzoyl]amino}-1H-thieno[3,2-c]pyrazole-5-carboxamide dihydrochloride] | < 500 nM | < 1000 nM | – | < 500 nM |

The remaining lines, values ahead:

| IC50 [1] | IC50 [2] | IC50 [3] | IC50 [4] | SMILES |
| --- | --- | --- | --- | --- |
| < 500 nM | < 1000 nM | < 100 nM | – | CN1CCN(c2ccc(C(=O)Nc3n[nH]c4cc(C(=O)NCc5ccc(F)cc5)sc34)cc2)CC1 [Compound 95, N-(4-fluorobenzyl)-3-{[4-(4-methylpiperazin-1-yl)benzoyl]amino}-1H-thieno[3,2-c]pyrazole-5-carboxamide] |
| < 500 nM | – | < 100 nM | < 500 nM | CCC(NC(=O)c1cc2[nH]nc(NC(=O)c3ccc(N4CCOCC4)cc3)c2o1)c1ccccc1 (stereo not drawn) [Compound 164, 3-[(4-morpholin-4-ylbenzoyl)amino]-N-[-1-phenylpropyl]-1H-furo[3,2-c]pyrazole-5-carboxamide] |
| – | < 1000 nM | < 100 nM | < 500 nM | CN1CCN(c2ccc(C(=O)Nc3n[nH]c4cc(C(=O)NCc5ccoc5)sc34)cc2)CC1 [Compound 124, N-(3-furylmethyl)-3-{[4-(4-methylpiperazin-1-yl)benzoyl]amino}-1H-thieno[3,2-c]pyrazole-5-carboxamide] |
| – | < 1000 nM | < 100 nM | < 500 nM | CCC(NC(=O)c1cc2[nH]nc(NC(=O)c3ccc(N4CCN(C)CC4)cc3)c2o1)c1ccccc1 (stereo not drawn) [Compound 165, 3-{[4-(4-methylpiperazin-1-yl)benzoyl]amino}-N-[1-phenylpropyl]-1H-furo[3,2-c]pyrazole-5-carboxamide] |
| – | < 1000 nM | < 100 nM | < 500 nM | O=C(Nc1n[nH]c2cc(C(=O)O)oc12)c1ccc(N2CCOCC2)cc1 [Compound 161, 3-[(4-morpholin-4-ylbenzoyl)amino]-1H-furo[3,2-c]pyrazole-5-carboxylic acid] |
| < 500 nM | < 1000 nM | < 100 nM | – | CN1CCN(c2ccc(C(=O)Nc3n[nH]c4cc(C(=O)NCc5ccc(F)cc5F)sc34)cc2)CC1 [Compound 102, N-(2,4-difluorobenzyl)-3-{[4-(4-methylpiperazin-1-yl)benzoyl]amino}-1H-thieno[3,2-c]pyrazole-5-carboxamide] |
| – | < 1000 nM | < 100 nM | – | CN1CCN(c2ccc(C(=O)Nc3n[nH]c4cc(C(=O)NCc5cccn5C)sc34)cc2)CC1 [Compound 123, 3-{[4-(4-methylpiperazin-1-yl)benzoyl]amino}-N-[(1-methyl-1H-pyrrol-2-yl)methyl]-1H-thieno[3,2-c]pyrazole-5-carboxamide] |
